Assays:
Assay type in all cases: in vivo
[1] = tested on: ryegrass, Italian (Italian ryegrass, Lolium multiflorum); assay: Test A postemergence; details: for Ryegrass, Italian plant response rating: visual injury rating on 0 to 100 scale (0 no effect, 100 complete control), approx. 10 d
Method in brief: (§1)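 Compounds were formulated in a non-phytotoxic solvent mixture with surfactant and applied as a preemergence directed soil spray after seeding, or sprayed postemergence over plants 2 to 10 cm tall at the one- to two-leaf stage. Evaluation after about 10 d compared treated with untreated controls, using a scale from 0 (no effect) to 100 (complete control).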

[2] = tested on: giant foxtail (Setaria faberii); assay: Test A postemergence; details: for Foxtail, Giant plant response rating: visual injury rating on 0 to 100 scale (0 no effect, 100 complete control), approx. 10 d
Method in brief: as §1

[3] = tested on: Kochia (Kochia scoparia); assay: Test A postemergence; details: for Kochia plant response rating: visual injury rating on 0 to 100 scale (0 no effect, 100 complete control), approx. 10 d
Method in brief: as §1

[4] = tested on: barnyardgrass (Echinochloa crus-galli); assay: Test A postemergence; details: for Barnyardgrass plant response rating: 125 g ai/ha, visual injury rating on 0 to 100 scale (0 no effect, 100 complete control), approx. 10 d; for Plant response rating, Barnyardgrass: 500 g ai/ha
Method in brief: as §1

[5] = tested on: corn (Zea mays); assay: Test A postemergence; details: for Corn plant response rating: visual injury rating on 0 to 100 scale (0 no effect, 100 complete control), approx. 10 d
Method in brief: as §1

[6] = tested on: wheat (Triticum aestivum); assay: Test A postemergence; details: for Wheat plant response rating: visual injury rating on 0 to 100 scale (0 no effect, 100 complete control), approx. 10 d
Method in brief: as §1

[7] = tested on: blackgrass (Alopecurus myosuroides); assay: Test A postemergence; details: for Blackgrass plant response rating: 125 g ai/ha, visual injury rating on 0 to 100 scale (0 no effect, 100 complete control), approx. 10 d; for Plant response rating, Blackgrass: 500 g ai/ha
Method in brief: as §1

[8] = tested on: Galium (catchweed bedstraw, Galium aparine); assay: Test A postemergence; details: for Galium plant response rating: visual injury rating on 0 to 100 scale (0 no effect, 100 complete control), approx. 10 d
Method in brief: as §1

[9] = tested on: ragweed (common ragweed, Ambrosia elatior); assay: Test A postemergence; details: for Ragweed plant response rating: visual injury rating on 0 to 100 scale (0 no effect, 100 complete control), approx. 10 d
Method in brief: as §1

[10] = tested on: pigweed (Amaranthus retroflexus); assay: Test A postemergence; details: for Pigweed plant response rating: visual injury rating on 0 to 100 scale (0 no effect, 100 complete control), approx. 10 d
Method in brief: as §1

[11] = tested on: sedge, umbrella (small-flower umbrella sedge, Cyperus difformis); assay: Test B flooded paddy test; details: Flood, 0 to 100 scale where 0 is no effect and 100 is complete control, 13 to 15 d
Method in brief: (§2)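 Greenhouse paddy pots with 2-leaf stage plants received compound by direct addition to floodwater 3 cm deep, kept at that level. Scored visually at 13–15 d versus controls (0 no effect; 100 complete control).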

[12] = tested on: barnyardgrass (Echinochloa crus-galli); assay: Test B flooded paddy test; details: Flood, 0 to 100 scale where 0 is no effect and 100 is complete control, 13 to 15 d
Method in brief: as §2

[13] = tested on: ducksalad (Heteranthera limosa); assay: Test B flooded paddy test; details: Flood, 0 to 100 scale where 0 is no effect and 100 is complete control, 13 to 15 d
Method in brief: as §2

[14] = tested on: rice (Oryra sativa); assay: Test B flooded paddy test; details: Flood, 0 to 100 scale where 0 is no effect and 100 is complete control, 13 to 15 d
Method in brief: as §2

[15] = tested on: ryegrass, Italian (Italian ryegrass, Lolium multiflorum); assay: Test A preemergence; details: for Plant response rating, Ryegrass, Italian: 125 g ai/ha; for Ryegrass, Italian plant response rating (0 to 100 scale, 0 is no effect, 100 is complete control): 500 g ai/ha, visual injury approx. 10 d
Method in brief: as §1

[16] = tested on: giant foxtail (Setaria faberii); assay: Test A preemergence; details: for Plant response rating, Foxtail, Giant: 125 g ai/ha; for Foxtail, Giant plant response rating (0 to 100 scale, 0 is no effect, 100 is complete control): 500 g ai/ha, visual injury approx. 10 d
Method in brief: as §1

[17] = tested on: Kochia (Kochia scoparia); assay: Test A preemergence; details: for Plant response rating, Kochia: 125 g ai/ha; for Kochia plant response rating (0 to 100 scale, 0 is no effect, 100 is complete control): 500 g ai/ha, visual injury approx. 10 d
Method in brief: as §1

[18] = tested on: barnyardgrass (Echinochloa crus-galli); assay: Test A preemergence; details: for Plant response rating, Barnyardgrass: 125 g ai/ha; for Barnyardgrass plant response rating (0 to 100 scale, 0 is no effect, 100 is complete control): 500 g ai/ha, visual injury approx. 10 d
Method in brief: as §1

[19] = tested on: ragweed (common ragweed, Ambrosia elatior); assay: Test A preemergence; details: for Plant response rating, Ragweed: 125 g ai/ha; for Ragweed plant response rating (0 to 100 scale, 0 is no effect, 100 is complete control): 500 g ai/ha, visual injury approx. 10 d
Method in brief: as §1

[20] = tested on: pigweed (Amaranthus retroflexus); assay: Test A preemergence; details: for Plant response rating, Pigweed: 125 g ai/ha; for Pigweed plant response rating (0 to 100 scale, 0 is no effect, 100 is complete control): 500 g ai/ha, visual injury approx. 10 d
[21] = 500 g ai/ha, postemergence, 0 to 100 scale, 0 no effect, 100 complete control
[22] = postemergence, 0 to 100 scale, 0 no effect, 100 complete control
[23] = preemergence, 0 to 100 scale (0 no effect, 100 complete control)
[24] = 125 g ai/ha, postemergence, visual rating after approx. 10 d, 0 to 100 scale (0 no effect, 100 complete control)
[25] = Postemergence, 500 g ai/ha, 0 to 100 scale where 0 is no effect and 100 is complete control
[26] = Postemergence, 0 to 100 scale where 0 is no effect and 100 is complete control
[27] = Preemergence, visual injury after approximately 10 d, 0 to 100 scale where 0 is no effect and 100 is complete control

O=C1NCC(c2cccc(OCC(F)F)c2)C1C(=O)Nc1ccc(F)c(F)c1F (stereo not drawn) [Compound 407]
Ryegrass, Italian plant response rating ([1]; 125 g ai/ha, postemergence): 0
Plant response rating, Ryegrass, Italian [1, 21]: 0
Foxtail, Giant plant response rating ([2]; 125 g ai/ha, postemergence): 70
Plant response rating, Foxtail, Giant [2, 21]: 70
Kochia plant response rating ([3]; 125 g ai/ha, postemergence): 0
Plant response rating, Kochia [3, 21]: 40
Barnyardgrass plant response rating ([4]; postemergence): 60
Plant response rating, Barnyardgrass [4, 22]: 70
Corn plant response rating ([5]; 125 g ai/ha, postemergence): 0
Plant response rating, Corn [5, 21]: 40
Wheat plant response rating ([6]; 125 g ai/ha, postemergence): 0
Plant response rating, Wheat [6, 21]: 0
Blackgrass plant response rating ([7]; postemergence): 30
Plant response rating, Blackgrass [7, 22]: 50
Galium plant response rating ([8]; 125 g ai/ha, postemergence): 0
Plant response rating, Galium [8, 21]: 0
Ragweed plant response rating ([9]; 125 g ai/ha, postemergence): 0
Plant response rating, Ragweed [9, 21]: 0
Pigweed plant response rating ([10]; 125 g ai/ha, postemergence): 0
Plant response rating, Pigweed [10, 21]: 0
Plant response rating, Sedge, Umbrella ([11]; 500 g ai/ha): 0
Plant response rating, Barnyardgrass ([12]; 500 g ai/ha): 60
Plant response rating, Ducksalad ([13]; 500 g ai/ha): 100
Plant response rating, Rice ([14]; 500 g ai/ha): 10
Plant response rating, Ryegrass, Italian [15, 23]: 0
Ryegrass, Italian plant response rating (0 to 100 scale, 0 is no effect, 100 is complete control) ([15]; Preemergence): 0
Plant response rating, Foxtail, Giant [16, 23]: 80
Foxtail, Giant plant response rating (0 to 100 scale, 0 is no effect, 100 is complete control) ([16]; Preemergence): 90
Plant response rating, Kochia [17, 23]: 0
Kochia plant response rating (0 to 100 scale, 0 is no effect, 100 is complete control) ([17]; Preemergence): 0
Plant response rating, Barnyardgrass [18, 23]: 70
Barnyardgrass plant response rating (0 to 100 scale, 0 is no effect, 100 is complete control) ([18]; Preemergence): 80
Plant response rating, Ragweed [19, 23]: 0
Ragweed plant response rating (0 to 100 scale, 0 is no effect, 100 is complete control) ([19]; Preemergence): 0
Plant response rating, Pigweed [20, 23]: 0
Pigweed plant response rating (0 to 100 scale, 0 is no effect, 100 is complete control) ([20]; Preemergence): 20

O=C1NCC(c2ccc(Oc3ccccc3)cc2)C1C(=O)Nc1cccc(F)c1F (racemic) [Compound 536]
Plant response rating, Ryegrass, Italian [1, 24]: 0
Plant response rating, Ryegrass, Italian [1, 25]: 0
Plant response rating, Foxtail, Giant [2, 24]: 0
Plant response rating, Foxtail, Giant [2, 25]: 30
Plant response rating, Kochia [3, 24]: 0
Plant response rating, Kochia [3, 25]: 0
Barnyardgrass plant response rating ([4]; postemergence): 0
Plant response rating, Barnyardgrass [4, 26]: 0
Plant response rating, Corn [5, 24]: 0
Plant response rating, Corn [5, 25]: 0
Plant response rating, Wheat [6, 24]: 0
Plant response rating, Wheat [6, 25]: 0
Blackgrass plant response rating ([7]; postemergence): 0
Plant response rating, Blackgrass [7, 26]: 0
Plant response rating, Galium [8, 24]: 0
Plant response rating, Galium [8, 25]: 0
Plant response rating, Ragweed [9, 24]: 0
Plant response rating, Ragweed [9, 25]: 0
Plant response rating, Pigweed [10, 24]: 0
Plant response rating, Pigweed [10, 25]: 0
Plant response rating, Sedge, Umbrella ([11]; 500 g ai/ha): 0
Plant response rating, Barnyardgrass ([12]; 500 g ai/ha): 30
Plant response rating, Ducksalad ([13]; 500 g ai/ha): 0
Plant response rating, Rice ([14]; 500 g ai/ha): 15
Plant response rating, Ryegrass, Italian [15, 27]: 0
Ryegrass, Italian plant response rating (0 to 100 scale, 0 is no effect, 100 is complete control) ([15]; Preemergence): 0
Plant response rating, Foxtail, Giant [16, 27]: 0
Foxtail, Giant plant response rating (0 to 100 scale, 0 is no effect, 100 is complete control) ([16]; Preemergence): 20
Plant response rating, Kochia [17, 27]: 0
Kochia plant response rating (0 to 100 scale, 0 is no effect, 100 is complete control) ([17]; Preemergence): 0
Plant response rating, Barnyardgrass [18, 27]: 0
Barnyardgrass plant response rating (0 to 100 scale, 0 is no effect, 100 is complete control) ([18]; Preemergence): 0
Plant response rating, Ragweed [19, 27]: 0
Ragweed plant response rating (0 to 100 scale, 0 is no effect, 100 is complete control) ([19]; Preemergence): 0
Plant response rating, Pigweed [20, 27]: 0
Pigweed plant response rating (0 to 100 scale, 0 is no effect, 100 is complete control) ([20]; Preemergence): 0

O=C(Nc1cccc(F)c1F)C1C(=O)N(c2ccccc2)CC1c1cccc(C(F)(F)F)c1 (stereo not drawn) [Compound 457]
Ryegrass, Italian plant response rating ([1]; 125 g ai/ha, postemergence): 0
Plant response rating, Ryegrass, Italian [1, 21]: 0
Foxtail, Giant plant response rating ([2]; 125 g ai/ha, postemergence): 0
Plant response rating, Foxtail, Giant [2, 21]: 0
Kochia plant response rating ([3]; 125 g ai/ha, postemergence): 0
Plant response rating, Kochia [3, 21]: 0
Barnyardgrass plant response rating ([4]; postemergence): 0
Plant response rating, Barnyardgrass [4, 22]: 0
Corn plant response rating ([5]; 125 g ai/ha, postemergence): 0
Plant response rating, Corn [5, 21]: 0
Wheat plant response rating ([6]; 125 g ai/ha, postemergence): 0
Plant response rating, Wheat [6, 21]: 0
Blackgrass plant response rating ([7]; postemergence): 0
Plant response rating, Blackgrass [7, 22]: 0
Galium plant response rating ([8]; 125 g ai/ha, postemergence): 0
Plant response rating, Galium [8, 21]: 0
Ragweed plant response rating ([9]; 125 g ai/ha, postemergence): 0
Plant response rating, Ragweed [9, 21]: 0
Pigweed plant response rating ([10]; 125 g ai/ha, postemergence): 0
Plant response rating, Pigweed [10, 21]: 0
Plant response rating, Sedge, Umbrella ([11]; 250 g ai/ha): 0
Plant response rating, Barnyardgrass ([12]; 250 g ai/ha): 0
Plant response rating, Ducksalad ([13]; 250 g ai/ha): 0
Plant response rating, Rice ([14]; 250 g ai/ha): 0
Plant response rating, Ryegrass, Italian [15, 23]: 0
Ryegrass, Italian plant response rating (0 to 100 scale, 0 is no effect, 100 is complete control) ([15]; Preemergence): 0
Plant response rating, Foxtail, Giant [16, 23]: 0
Foxtail, Giant plant response rating (0 to 100 scale, 0 is no effect, 100 is complete control) ([16]; Preemergence): 0
Plant response rating, Kochia [17, 23]: 0
Kochia plant response rating (0 to 100 scale, 0 is no effect, 100 is complete control) ([17]; Preemergence): 0
Plant response rating, Barnyardgrass [18, 23]: 0
Barnyardgrass plant response rating (0 to 100 scale, 0 is no effect, 100 is complete control) ([18]; Preemergence): 0
Plant response rating, Ragweed [19, 23]: 0
Ragweed plant response rating (0 to 100 scale, 0 is no effect, 100 is complete control) ([19]; Preemergence): 0
Plant response rating, Pigweed [20, 23]: 0
Pigweed plant response rating (0 to 100 scale, 0 is no effect, 100 is complete control) ([20]; Preemergence): 0
